Consider 74 compounds from the SangsterLogP compilation.

The nature of the first data set: method code SF, from DOI: 10.1016/j.ejps.2012.10.019, PMID: 23131797. The conditions noted are these: pH 2.0.
For `Cc1ccc(OCCC(=O)N2CCN(S(=O)(=O)c3cccs3)CC2)cc1`, the logD was 2.98. `COc1cccc(-n2c(SCc3cc(=O)n4ccsc4n3)nc3ccccc3c2=O)c1` displayed a logD of 3.56.

Still in this data set, the particulars now being: pH 5.0.
Take `CCc1ccc(-n2nnnc2SCC(=O)Nc2ccc(C(C)=O)cc2)cc1`: the logD amounted to 4.69. `Cc1ccc(S(=O)(=O)N2CCCN(S(=O)(=O)c3ccc(C)cc3C)CC2)c(C)c1` yielded a logD of 5.01.

In the case of `Cc1cccc(C)c1NC(=O)CSc1nnnn1-c1ccc(OC(F)(F)F)cc1`, the logD amounted to 4.82. The same measure, in the same setting: for `CN(Cc1ccccc1)S(=O)(=O)c1ccc(NC(=O)Cc2ccc(F)cc2)cc1` the value was 5.14; for `COC(=O)C1=C(C)NC(C)=C(C(=O)OC)C1c1cn(-c2ccccc2)nc1-c1cccc([N+](=O)[O-])c1`, 5.04; for `Cc1cc2nsnc2c([N+](=O)[O-])c1C`, 2.64. Still for that read-out and setting: for `Clc1ccc(CSc2ncccn2)cc1Cl` the value was 4.33; for `CCCCCC(=O)NC1(CCC)CCCC1`, 4.28. The same measure, in the same setting: for `CCOC(=O)C1=C(Nc2ccc(OC(=O)Nc3ccc(OC(F)(F)F)cc3)cc2)C(=O)N(C(C)(C)C)C1` the value was 6.72; for `Cc1ccc(NC(=O)CSc2nnc(Cc3ccccc3)o2)cc1Cl`, 4.85; for `COc1ccc(OC)c(NC(=O)c2ccc(NC3=C(Cl)C(=O)N(C4CCCCC4)C3=O)cc2)c1`, 5.96.

`CCOC(=O)CSc1nnnn1-c1cccc2ccccc12`: the logD turned out to be 3.8. On the same count and under the same terms, for `O=C(Nc1ccc(OC(F)F)cc1)c1ccc(COc2ccc(I)cc2)o1` the value was 5.99; for `O=C(COC(=O)c1cccc(N2C(=O)c3ccccc3C2=O)c1)c1ccc(F)cc1`, 4.68. As to `COc1ccc(C=O)cc1COc1c(F)c(F)cc(F)c1F`, the logD is 4.24. Still for that read-out and setting: for `Cc1ccc(N(CCOC(=O)c2ccc(S(=O)(=O)N3CCCCC3)cc2)C2=NS(=O)(=O)c3ccccc32)cc1` the value was 5.58; for `CCn1cc(CN(C)C(=O)c2cc3cc(Br)ccc3oc2=O)c(C)n1`, 3.27. On the same count and under the same terms, for `N#Cc1c(SCC(=O)OCc2ccccc2)nsc1SCC(=O)OCc1ccccc1` the value was 5.6; for `FC(F)(F)c1nc(-c2ccc(-c3noc(C(F)(F)F)n3)cc2)no1`, 6.06.

As to `COCCCNC(=O)c1ccccc1C(F)(F)F`, the logD is 2. Same read-out and setting: for `O=C1c2ccccc2C(=O)N1c1ccccc1S(=O)C(F)(F)F` (centres undefined) the value was 3.3; for `COc1cc(C(=O)c2ccc(F)cc2)cc(C(=O)c2ccc(F)cc2)c1`, 4.89. The same measure, in the same setting: for `COc1cc2c(cc1NC(=O)COC(=O)c1cc(OC)c(OC)cc1[N+](=O)[O-])oc1ccccc12` the value was 5.04; for `COc1ccc(C(=O)Nc2cccc(F)c2)cc1S(=O)(=O)N1CCOCC1`, 3.64. Take `C#Cc1cccc(NC(=O)c2cc(C(=O)Nc3cccc(C#C)c3)cc(N3C(=O)c4ccccc4C3=O)c2)c1`: the logD was determined as 6.85. As for `COc1ccc(S(=O)(=O)N(CC(=O)Nc2cccc([N+](=O)[O-])c2)C2CCCCC2)cc1Cl`, the logD turned out to be 5.48. The compound `CCCCCCSC1=C(C#N)C(c2cccs2)C(C(=O)Nc2ccccc2OC)=C(C)N1` (centres undefined) had a logD of 6.28. Consider `CCn1cc(-c2nc3c4c(C)c(C)sc4ncn3n2)cn1`, for which the log distribution coefficient (logD) was found to be 3.77. On the same count and under the same terms, for `C=CCOC(=O)COc1ccc2c(=O)c(-c3ccc(Cl)cc3)c(C)oc2c1` the value was 4.84. Still for that read-out and setting: for `COc1ccc(NC(=O)c2cc(NC(=O)c3ccccc3)cc(C(=O)Nc3ccc(OC)cc3)c2)cc1` the value was 5.59; for `Nn1c(SCC(=O)Nc2ccccc2-c2ccccc2)nnc1-c1ccc(OC(F)F)cc1`, 4.85; for `CSc1nc2c(C#N)c(SC)nn2c(-c2ccc(Cl)cc2)c1C#N`, 5.51. `CCCn1c(=O)c(Br)cn(-c2ccccc2C)c1=O` registered a logD of 2.82.

As for `COc1ccc(-c2nnc(SCc3cc(=O)oc4ccc5ccccc5c34)n2N)cc1`, the logD was found to be 4.24. The same measure, in the same setting: for `CCC(CC)NC(=O)c1ccc(Cl)c(S(=O)(=O)N2CCCC2)c1` the value was 3.6; for `O=P(OCC(F)(F)F)(OCC(F)(F)F)N1CCOCC1`, 2.69. Same read-out and setting: for `COC(=O)CN(c1ccccc1)S(=O)(=O)c1ccc(OC)cc1` the value was 3.43. The same measure, in the same setting: for `O=C(Nc1ccccc1C(F)(F)F)NC1CCCCC1` the value was 4. Turning to `CCCc1ccc(OCc2ccc(C(=O)Nc3ccccc3C(=O)OC)o2)c(OC)c1`, the logD came to 5.89. Compound `CSc1scc(-c2cccs2)c1C#N` yielded a pH-dependent lipophilicity (logD) of 3.69.

Staying with this data set, now noted: pH 6.5.
With `CC(C)(C)c1cc(C(F)(F)F)nc(SCCNC(=O)C2CCCCC2)n1`, the logD is 5.77.

As for `O=C(CC1Nc2ccccc2NC1=O)Nc1ccccc1NC(=O)CC1Nc2ccccc2NC1=O` (centres undefined), the logD stood at 3.42. The same measure, in the same setting: for `O=C(COc1nnc(SCC(=O)c2ccc3c(c2)OCCO3)n1C1Cc2ccccc2C1)c1ccc(F)cc1` the value was 5.47; for `COc1cc(C(=O)COC(=O)CCCOc2ccc(Cl)cc2Cl)cc(OC)c1OC`, 5.59.

With `COc1ccccc1N1C(=O)c2ccc(C(=O)Nc3ccc(-c4nnc(-c5ccccc5)o4)cc3)cc2C1=O`, the logD worked out at 6.17.

`N#CC1=C(N)Oc2c(oc(CO)cc2=O)C1c1ccccc1OCc1ccccc1Cl` (centres undefined) displayed a logD of 4.34. The same measure, in the same setting: for `C=CCNC(=O)CSc1nc(C(F)F)cc(-c2cn(C)nc2C)c1C#N` the value was 3.74.

The same data set, now with this note: pH 7.3.
`n1onc2c1NC1Nc3nonc3NC1N2` (centres undefined) came in with a logD of 0.3. Same read-out and setting: for `Cn1c(C(=O)N2CCC3(CC2)OCCO3)cc2c(=O)n3ccccc3nc21` the value was 2.87. Still for that read-out and setting: for `COc1ccccc1NC(=O)C1=C(C)Nc2nc(SCc3ccccc3F)nn2C1c1ccncc1` (centres undefined) the value was 4.66; for `C=C(c1ccc(N(C)C)cc1)c1ccc(N(C)C)cc1`, 5.3; for `CC(C)N(C(=O)CSc1nnc(NCc2ccccc2)s1)C(C)C`, 4.09. Still for that read-out and setting: for `Cc1cccc(NC(=O)CSc2ccccn2)c1C` the value was 3.19. Compound `C=CCn1c(SCc2ccccc2)nc2ccccc2c1=O` returned a logD of 5.11. Still for that read-out and setting: for `CCn1c(SCc2nc3c4cnn(C)c4ncn3n2)nnc1-c1cc(C(F)(F)F)n(C)n1` the value was 3.85. Same read-out and setting: for `CCn1c(SCC(=O)Nc2ccc(C(=O)OC)cc2)nnc1-c1ccccc1` the value was 4.24; for `Cn1c(SCC(=O)NC2CCCCCC2)nnc1-c1ccc(Cl)cc1`, 4.21; for `O=C(Nc1cc2c(n(CCNc3ncc(C(F)(F)F)cc3Cl)c1=O)CCCC2=O)c1ccc(Cl)cc1`, 5.83. In the case of `O=C(c1cccnc1)N1CCN(S(=O)(=O)c2ccccc2)CC1`, the logD is 2.3.

Still in this data set, the particulars now being: pH 8.0.
Turning to `Cc1cc(SCC(=O)NCc2ccc3c(c2)OCO3)nc2ccccc12`, the logD is 4.15. Still for that read-out and setting: for `CSc1ncccc1C(=O)OCC(=O)Nc1c(C)n(C)n(-c2ccccc2)c1=O` the value was 3.63.

The data set is the same for the next values; noted with them: pH 10.0.
Turning to `Cc1ccc2c(C)nc(Nc3nc4c(c(=O)[nH]3)CCCC4)nc2c1`, the logD is 3.92. On the same count and under the same terms, for `CC1CN(c2nc3ccccn3c(=O)c2C=C(C#N)C#N)CC(C)O1` (centres undefined) the value was 3.24; for `COc1ccc(NC(=O)c2sc3sc(C(=O)Nc4ccc(OC)c(OC)c4)c(N)c3c2N)cc1OC`, 4.88. Still for that read-out and setting: for `Cc1cc(C)c(NC(=O)CSc2nnc(-c3ccc(OC(F)F)cc3)n2N)c(C)c1` the value was 4.41.

Still in this data set, the particulars now being: pH 10.5.
The compound `Cc1nnc2c(=O)n(CCNc3ncc(C(F)(F)F)cc3Cl)c3ccc(Cl)cc3n12` returned a logD of 4.57. Still for that read-out and setting: for `Cc1cc(C)n2c(SCc3ccc(C(=O)c4ccccc4)cc3)nnc2n1` the value was 4.43; for `COc1ccc(S(=O)(=O)N2CCCCCC2)cc1C(=O)OCC(=O)c1c(N)n(C)c(=O)n(C)c1=O`, 4.59. Same read-out and setting: for `Cc1cc(C)n2nc(SCC(=O)NCCNC(=O)CSc3nc4nc(C)cc(C)n4n3)nc2n1` the value was 0.82; for `Cc1nc(N(C)C)c2sc(=S)n(-c3ccccc3)c2n1`, 3.62.

On to `CCOC(=O)N1CCN(c2nc(C(F)(F)F)nc3c(C)cc(C)cc23)CC1`, for which the logD is 5.92. Still for that read-out and setting: for `Cc1nc2c(N)nnc(N)c2nc1C` the value was 1.14.
